Reference: patent US20240277873A1, “ULTRABRIGHT […] PROBES FOR DETECTION AND IMAGING” (Nanyang Technological University, priority 2021, published 2024)
Where two headings read alike, the source gives them in different places.

Assays:
[1] = cited from earlier work
[2] = Chemiluminescence quantum yield in the presence of O2•-; assay type: physicochemical; conditions: probe 20 μM, O2•- 100 μM, PBS (10 mM, pH 7.4, 10% DMSO), 37° C.
Procedure: (§1) The chemiluminescence QYs of BOPDSu, BTPDSu, MBPDSu, and MPDSu (20 μM) were measured in the presence of O2^•- (100 μM) in PBS (10 mM, pH 7.4, 10% DMSO) at 37° C. The fluorescence QYs were determined by using Rhodamine B as a standard dye (QY 36%) in PBS (10 mM, pH 7.4) (X. Zhen et al., ACS Nano 2016, 10, 6400-6409). The fluorescence QY of AMPD was obtained from the literature (O. Green et al., ACS Cent. Sci. 2017, 3, 349-358).

[3] = Chemiluminescence kinetic studies (half-lives, CL emission) of caged probes in the presence of O2•-; assay type: physicochemical; conditions: caged probe after activation, in PBS (10% DMSO) at 37° C.
Procedure: FIG. […]
[…] The chemiluminescent intensities were plotted as a function of time.
[…] The chemiluminescence signal was recorded by the microplate reader to calculate half-lives of BTPDSu at different pHs.

[4] = Chemiluminescence and fluorescence changes of probes toward O2•- (KO2): response, selectivity, LOD; conditions: for LOD against O2•-: KO2 0-1000 nM, LOD=3σ/k; for LOD against O2•- / fluorescent signal enhancement upon cleavage by O2•-: PBS (10 mM, pH 7.4, 10% DMSO), 37° C.; for chemiluminescence intensity increase after addition of O2•- / fluorescent signal enhancement upon cleavage by O2•-: probe 20 μM; for chemiluminescence intensity increase after addition of O2•-: O2•- 40 μM for 10 s, PBS pH 7.4, 37° C., at 480 / 520 / 580 / 540 nm; for fluorescent signal enhancement upon cleavage by O2•-: at ~486 / 532 / 582 / 542 nm
Procedure: The chemiluminescence and fluorescence changes of BOPDSu, BTPDSu, MBPDSu and MPDSu (20 μM) were recorded at different concentrations of RONS (40 μM) and other metal ions (100 μM). BOPDSu, BTPDSu, MBPDSu and MPDSu (20 μM) in phosphate buffered saline (PBS) buffer were treated in the presence of different RONS (40 μM), and metal ions (Mg^2+, Ca^2+ or Fe^2+, 100 μM) at 37° C.
The chemiluminescence signals were recorded at different concentrations of KO2 (0, 50, 100, 250, 500 and 1000 nM). Then, the limit of detection (LOD) of BOPDSu, BTPDSu, MBPDSu and MPDSu were calculated by chemiluminescence intensities based on the equation: LOD=3σ/k, where σ is the standard deviation of emission intensity of blank, and k is the slope of plot of emission intensities.

[5] = Fluorescence quantum yield of activated probes; assay type: physicochemical; conditions: Rhodamine B as standard (QY 36%), PBS (10 mM, pH 7.4)
Procedure: as §1

[6] = tested on: dorsal skins of mice; assay: Histopathologic, immunohistochemical and flow cytometry analyses of dorsal skins (IMQ psoriasis model); assay type: in vivo, BALB/c mice
Procedure: The control group was treated with Vaseline (50 mg/d) and the IMQ-treatment group was applied with IMQ cream (60 mg/d, 5%) once a day. […] Probe BTPDNe (10 uM, 1 mM in DMSO) was thoroughly mixed with Aquaphor (˜10 mg) and applied for psoriasis imaging, followed by poly(methyl methacrylate) microneedle treatment for 1 min. Then, chemiluminescent signals at different time-points (0, 3, 5, 10, 15, 30, 45 and 60 min) after probe-treatment were recorded using IVIS system bioluminescence with acquiring time of 180 s. Until the third day, all the mice were sacrificed to collect tissue and blood for further experiments (hematoxylin and eosin (H&E) staining and flow cytometry analysis) as described in Example 11.
The dorsal skin samples were separated and soaked in 4% paraformaldehyde (4% PFA) for 12 h and immersed in 30% sucrose solution. The skin samples were stained by hematoxylin and eosin (H&E). Then, the samples were flash-frozen by liquid nitrogen, immobilized with optimal cutting temperature compound, and section slices ([…]). The thickness of epidermis was observed under a microscope (Nikon ECLIPSE 80i microscope). APC-Ly6G, as a neutrophil marker, was used to stain neutrophil cells and DAPI was applied for cell nucleus staining. The immunofluorescence was observed by Nikon ECLIPSE 80i microscope.
After performing in vivo chemiluminescence imaging of neutrophils using BTPDNe in psoriasis-bearing mice with 2 day IMQ treatment, fresh section slices from dorsal skins were stained with Ly6G. Immunofluorescence imaging of slices with activated BTPDNe in green color was observed upon excitation at 405 nm and emission at 500-550 nm, while red color from Ly6G was observed upon excitation from 633-647 nm and emission at 660 nm. The immunofluorescence imaging was acquired by Nikon ECLIPSE 80i microscope.

[7] = uncaged, in PBS (10% DMSO), pH 7.4, 37° C.
[8] = uncaged, in PBS (10% DMSO), pH 10, 37° C.
[9] = uncaged, in PBS (5% DMSO), pH 7.4, 37° C.
[10] = uncaged, in PBS, pH 7.4, 10% FBS

In the case of `COC1(c2ccc(/C=C/C(=O)O)c(O)c2Cl)OOC12C1CC3CC(C1)CC2C3` (stereo not drawn), the “CL Emission” value [1, 7] is listed as 510 nm and the “CL Emission” value [1, 8] is listed as 510 nm.

With “1-methylpyridinium-benzothiazole-phenoxyl-dioxetane [MBPDSu]” the “ΦCl, chemiluminescence QY” value [2] was 0.045 einsteins/mol, the “CL Emission” value [3] was 580 nm and the “LOD against O2•-” value [4] was 6.3 nM. For the same compound, the “chemiluminescence intensity increase after addition of O2•-” value (“chemiluminescence intensity increase” below) [4] was 2590 times and the “fluorescent signal enhancement upon cleavage by O2•-” value [4] was 40.5 folds.

For `COC1(c2ccc(/C=C/c3ccc(OCC(=O)O)cc3)c(O)c2Cl)OOC12C1CC3CC(C1)CC2C3` (stereo not drawn), the “CL Emission” value [1, 7] is given as 490 nm and the “CL Emission” value [1, 8] is given as 490 nm.

In the case of `COC(=O)/C=C/c1ccc(C2(OC)OOC23C2CC4CC(C2)CC3C4)c(Cl)c1O` (stereo not drawn) [drawing 49], the “CL Emission” value [1, 7] is given as 540 nm and the “CL Emission” value [1, 8] is given as 550 nm.

For `COC(=O)c1ccc(-c2nc3ccccc3s2)c(O)c1` [ABTPD], the “ΦFl, fluorescence QY of activated probe” value [5] was 24.1%.

For `COC1(c2cccc(O)c2Cl)OOC12C1CC3CC(C1)CC2C3` (stereo not drawn), the “CL Emission” value [1, 9] is listed as 470 nm and the “CL Emission” value ([1]; uncaged, in PBS (5% DMSO), pH 10, 37° C.) is listed as 470 nm.

For `COC1(c2cc(O)c(/C=C/C(=O)O)cc2/C=C/C2=CC(=C(C#N)C#N)c3ccccc3O2)OOC12C1CC3CC(C1)CC2C3` (stereo not drawn), the “CL Emission” value [1, 10] is given as 690 nm.

For `COC1(c2ccc(/C=C/C#N)c(O)c2Cl)OOC12C1CC3CC(C1)CC2C3` (stereo not drawn) [drawing 52], the “CL Emission” value [1, 7] is listed as 525 nm and the “CL Emission” value [1, 8] is listed as 525 nm.

In the case of `COC1(c2ccc(/C=C/C#N)c(OCc3ccc4c(c3)C(=O)C(=O)N4)c2Cl)OOC12C1CC3CC(C1)CC2C3` (stereo not drawn), the “CL Emission” value ([1]; caged, after activation, in 20 mM HEPES (pH 7.4), 1% DMSO) is listed as 525 nm.

In the case of `COC(=O)c1cc(O)c(-c2nc3ccccc3s2)cc1/C=C/c1cc[n+](C)cc1.[I-]` [AMBPD], the “ΦFl, fluorescence QY of activated probe” value [5] is reported as 7.5%.

For “methyl acrylate-phenoxyl-dioxetane [MPDSu, reference compound]”, the “ΦCl, chemiluminescence QY” value [2] was 0.023 einsteins/mol, the “LOD against O2•-” value [4] was 13.6 nM and the “chemiluminescence intensity increase” value [4] was 2624 times. The “fluorescent signal enhancement upon cleavage by O2•-” value [4] was 11.2 folds.

For `COC1(c2ccc(/C=C/c3ccc(C(=O)O)cc3)c(O)c2Cl)OOC12C1CC3CC(C1)CC2C3` (stereo not drawn), the “CL Emission” value [1, 7] is listed as 535 nm and the “CL Emission” value [1, 8] is listed as 535 nm.

In the case of `COC1(c2cc(O)ccc2/C=C/C2=CC(=C(C#N)C#N)c3ccccc3O2)OOC12C1CC3CC(C1)CC2C3` (stereo not drawn), the “CL Emission” value [1, 10] is given as 660 nm.

For `COC1(c2ccc(/C=C/C#N)c(OC(=O)c3ccccc3P(c3ccccc3)c3ccccc3)c2Cl)OOC12C1CC3CC(C1)CC2C3` (stereo not drawn), the “CL Emission” value ([1]; caged, after activation, in 20 mM HEPES or PBS (pH 7.4), 1% DMSO) is given as 525 nm.

In the case of `COC(=O)/C=C/c1ccc(C2(OC)OOC23C2CC4CC(C2)CC3C4)c(Cl)c1O` (stereo not drawn) [drawing 50], the “CL Emission” value [1, 9] is listed as 540 nm.

For `COC(=O)c1ccc(-c2nc3ccccc3o2)c(O)c1` [ABOPD], the “ΦFl, fluorescence QY of activated probe” value [5] was 33.0%.

In the case of `CC(=O)Oc1cc(C23OCC(C)(C)C2(C(C)(C)C)OO3)cc2ccc(=O)oc12` (stereo not drawn), the “CL Emission” value ([1]; caged, after activation, in DMSO with 170 μM TBAF at 25° C.) is given as 470 nm.

In the case of `COC1(c2ccc(/C=C/c3ccc(CC(=O)O)cc3)c(O)c2Cl)OOC12C1CC3CC(C1)CC2C3` (stereo not drawn), the “CL Emission” value [1, 7] is given as 500 nm and the “CL Emission” value [1, 8] is given as 500 nm.

In the case of benzoxazole-phenoxyl-dioxetane [BOPDSu], the “ΦCl, chemiluminescence QY” value [2] is reported as 0.189 einsteins/mol, the “LOD against O2•-” value [4] is reported as ~5.7 nM and the “chemiluminescence intensity increase” value [4] is reported as 3291 times. For the same compound, the “fluorescent signal enhancement upon cleavage by O2•-” value [4] was 45.3 folds.

For `COC1(c2cc(O)cc3oc(=O)ccc23)OOC12C1CC3CC(C1)CC2C3` (stereo not drawn), the “CL Emission” value [1, 7] is listed as 465 nm.

For `COC1(c2cccc(O)c2)OOC12C1CC3CC(C1)CC2C3` (stereo not drawn), the “CL Emission” value ([1]; uncaged, in o-Xylene at 25° C.) is given as ~460 nm.

For `CC(C)Cn1cnc2c(N)nc3ccccc3c21` [IMQ, Imiquimod], the “population of NE-expressing neutrophils in skins relative to CsA-treated group” value ([6]; day 2, flow cytometry) was 2.62 times, the “population of NE-expressing neutrophils in skins relative to control group” value ([6]; day 2, flow cytometry) was 2.03 times and the “skin thickness and neutrophil (CD11c+, Ly6G+) population / infiltration” value ([6]; dorsal skins, histology and immunohistochemistry, vs control group) was “increased thickness and neutrophil (CD11c+, Ly6G+) infiltration”.

For `COC1(c2ccc(/C=C/C#N)c(O)c2Cl)OOC12C1CC3CC(C1)CC2C3` (stereo not drawn) [drawing 51], the “CL Emission” value [1, 9] is given as 525 nm.
